Reference: paper PMC6519732 (Journal of medicinal chemistry, 2019)

Legend:
[1] = Metabolic stability in human liver microsomes; format: in vitro ADME; details: for half-life at 2 μM: human, liver microsomes
HepaRG cells = assay: CellTiter-Blue cell viability assay, HepaRG; details: 24 h of treatment, highest tested concentration (100 μM)
human recombinant HDAC6 = biological target: T1, human recombinant HDAC6 (Homo sapiens, UniProt Q9UBN7); format: biochemical; details: for HDAC6 inhibition: concentrations up to 25 μM, data not shown; for LE, HDAC6 (ligand efficiency): from IC50 in place of Kd, T = 310 K; for SF 1/6, selectivity factor for HDAC6 over HDAC1: IC50(HDAC1)/IC50(HDAC6)
T1 sequence (Q9UBN7 1-1215): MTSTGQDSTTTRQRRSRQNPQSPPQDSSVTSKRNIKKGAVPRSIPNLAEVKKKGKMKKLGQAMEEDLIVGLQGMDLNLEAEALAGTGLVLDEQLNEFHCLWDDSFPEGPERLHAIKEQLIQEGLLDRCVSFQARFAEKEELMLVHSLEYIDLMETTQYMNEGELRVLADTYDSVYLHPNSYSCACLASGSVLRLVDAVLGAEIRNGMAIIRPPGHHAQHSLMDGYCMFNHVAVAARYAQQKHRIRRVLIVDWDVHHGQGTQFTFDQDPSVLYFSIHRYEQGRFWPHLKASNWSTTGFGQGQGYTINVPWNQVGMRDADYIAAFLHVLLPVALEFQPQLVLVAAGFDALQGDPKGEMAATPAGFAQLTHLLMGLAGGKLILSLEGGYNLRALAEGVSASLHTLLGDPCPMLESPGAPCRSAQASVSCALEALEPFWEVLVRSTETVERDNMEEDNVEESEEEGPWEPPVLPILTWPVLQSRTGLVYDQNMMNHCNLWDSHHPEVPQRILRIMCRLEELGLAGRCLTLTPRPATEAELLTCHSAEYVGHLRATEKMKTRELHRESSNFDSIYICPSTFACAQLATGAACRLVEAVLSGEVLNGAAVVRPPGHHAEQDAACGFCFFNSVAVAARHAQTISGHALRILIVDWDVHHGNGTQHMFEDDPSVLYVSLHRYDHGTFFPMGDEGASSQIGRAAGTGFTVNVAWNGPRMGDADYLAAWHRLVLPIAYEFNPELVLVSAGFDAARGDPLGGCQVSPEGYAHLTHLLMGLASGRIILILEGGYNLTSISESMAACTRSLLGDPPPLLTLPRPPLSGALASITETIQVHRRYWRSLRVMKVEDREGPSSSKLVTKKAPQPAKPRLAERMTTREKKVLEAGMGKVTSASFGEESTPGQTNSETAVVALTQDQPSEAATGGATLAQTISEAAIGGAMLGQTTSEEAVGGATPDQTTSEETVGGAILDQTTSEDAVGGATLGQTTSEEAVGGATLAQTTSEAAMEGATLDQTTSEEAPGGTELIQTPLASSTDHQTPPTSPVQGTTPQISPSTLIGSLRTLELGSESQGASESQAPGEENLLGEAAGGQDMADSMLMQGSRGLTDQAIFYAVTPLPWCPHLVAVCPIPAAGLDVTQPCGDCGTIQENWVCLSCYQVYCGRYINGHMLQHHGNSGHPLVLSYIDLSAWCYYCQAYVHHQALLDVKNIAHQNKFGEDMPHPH

HUH7 cells = details: HUH7, 10 and 100 μM, 72 h
MDA-MB-231 cells = details: MDA-MB-231, 10 and 100 μM, 72 h
T24 cells = details: T24, 10 and 100 μM, 72 h
human recombinant HDAC1 = human recombinant HDAC1 (Homo sapiens, UniProt Q13547); assay: In vitro HDAC1 inhibition, fluorogenic ZMAL assay; format: biochemical
hHDAC6 = details: cited from earlier work

Sequence of human recombinant HDAC1 (Q13547 whole entry): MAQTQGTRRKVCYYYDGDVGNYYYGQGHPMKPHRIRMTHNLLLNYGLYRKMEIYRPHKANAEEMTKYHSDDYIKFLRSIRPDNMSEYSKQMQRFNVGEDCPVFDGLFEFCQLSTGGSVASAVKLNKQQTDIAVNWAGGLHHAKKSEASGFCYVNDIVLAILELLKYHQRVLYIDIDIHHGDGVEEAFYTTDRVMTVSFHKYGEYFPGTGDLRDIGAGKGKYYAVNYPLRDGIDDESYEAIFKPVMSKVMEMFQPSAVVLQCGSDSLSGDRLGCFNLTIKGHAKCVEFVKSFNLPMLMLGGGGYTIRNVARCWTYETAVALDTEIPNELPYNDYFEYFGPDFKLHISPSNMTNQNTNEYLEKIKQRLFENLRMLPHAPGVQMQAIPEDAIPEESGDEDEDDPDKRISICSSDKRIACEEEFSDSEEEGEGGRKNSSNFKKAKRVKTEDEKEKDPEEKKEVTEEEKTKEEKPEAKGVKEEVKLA

Structure (SMILES) | LE, HDAC6 (ligand efficiency) (human recombinant HDAC6) | IC50 (human recombinant HDAC1) | other results
Cn1c(=O)c2c(ncn2C)n(C)c1=O [Caffeine, reference compound] |  |  | half-life at 2 μM [1]: > 40 min
O=C(NO)c1ccc(CN2c3ccccc3Sc3ccccc32)cc1 [Compound 1a, 4-[(10H-Phenothiazin-10-yl)methyl]-N-hydroxybenzamide] |  |  | human liver microsomal stability (in words) [1]: moderate stability; compound remaining ([1]; human liver microsomes, after 40 min incubation): about 77%; half-life at 2 μM [1]: > 40 min; Viability of HepaRG cells (HepaRG cells): not affected
O=C(O)c1ccc(CN2c3ccccc3Sc3ccccc32)cc1 [Compound 5a, 4-[(10H-Phenothiazin-10-yl)methyl]benzoic acid] |  |  | activity on HDAC6 (in words) (human recombinant HDAC6): inactive; HDAC6 inhibition (human recombinant HDAC6): did not show noteworthy HDAC6 inhibition
O=C(O)c1ccc(CN2c3ccncc3Sc3ncccc32)cc1 [Compound 5n, 4-[(5H-Dipyrido[2,3-b:4’,3’-e][1,4]thiazin-5-yl)methyl]benzoic acid] |  |  | activity on HDAC6 (in words) (human recombinant HDAC6): inactive; HDAC6 inhibition (human recombinant HDAC6): did not show noteworthy HDAC6 inhibition
O=C(NO)c1ccc(CN2c3ccccc3Sc3cccc(Cl)c32)cc1 [Compound 7c, 4-[(1-Chloro-10H-phenothiazin-10-yl)methyl]-N-hydroxybenzamide] | 0.43 (kcal/mol)/non-H-Atom |  | 
O=C(NO)c1ccc(CN2c3ccccc3Sc3ccc(C(F)(F)F)cc32)cc1 [Compound 7d, N-Hydroxy-4-{[2-(trifluoromethyl)-10H-phenothiazin-10-yl]methyl}benzamide] | 0.37 (kcal/mol)/non-H-Atom |  | 
O=C(NO)c1ccc(CN2c3ccccc3[S+]([O-])c3ccccc32)cc1 [Compound 7e, N-Hydroxy-4-[(5-oxido-10H-phenothiazin-10-yl)methyl]benzamide] | 0.39 (kcal/mol)/non-H-Atom |  | 
O=C(NO)c1ccc(CN2c3ccccc3Sc3ccc(Cl)cc32)cc1 [Compound 7f, 4-[(2-Chloro-10H-phenothiazin-10-yl)methyl]-N-hydroxybenzamide] | 0.43 (kcal/mol)/non-H-Atom |  | 
COc1ccc2c(c1)N(Cc1ccc(C(=O)NO)cc1)c1ccccc1S2 [Compound 7g, N-Hydroxy-4-[(2-methoxy-10H-phenothiazin-10-yl)methyl]benzamide] | 0.42 (kcal/mol)/non-H-Atom |  | 
CCSc1ccc2c(c1)N(Cc1ccc(C(=O)NO)cc1)c1ccccc1S2 [Compound 7h, 4-{[2-(Ethylthio)-10H-phenothiazin-10-yl]methyl}-N-hydroxybenzamide] | 0.38 (kcal/mol)/non-H-Atom |  | 
O=C(NO)c1ccc(CN2c3ccccc3Sc3cccnc32)cc1 [Compound 7i, 4-[(10H-Benzo[b]pyrido[2,3-e][1,4]thiazin-10-yl)methyl]-N-hydroxybenzamide] |  |  | effect on proliferation (in words) (HUH7 cells): inhibited proliferation; human liver microsomal stability (in words) [1]: metabolically quite stable; half-life at 2 μM [1]: > 40 min; effect on proliferation (in words) (MDA-MB-231 cells): inhibited proliferation; Viability of HepaRG cells (HepaRG cells): not affected; effect on proliferation (in words) (T24 cells): inhibited proliferation
O=C(NO)c1ccc(CN2c3ccccc3Sc3ccncc32)cc1 [Compound 7j, 4-[(10H-Benzo[b]pyrido[3,4-e][1,4]thiazin-10-yl)methyl]-N-hydroxybenzamide] | 0.46 (kcal/mol)/non-H-Atom | 1.25 ± 0.01 µM | SF 1/6, selectivity factor for HDAC6 over HDAC1 (human recombinant HDAC6): 179
O=C(NO)c1ccc(CN2c3ccccc3Sc3nccnc32)cc1 [Compound 7k, 4-[(10H-Benzo[b]pyrazino[2,3-e][1,4]thiazin-10-yl)methyl]-N-hydroxybenzamide] | 0.44 (kcal/mol)/non-H-Atom | 3.84 ± 0.13 µM | SF 1/6, selectivity factor for HDAC6 over HDAC1 (human recombinant HDAC6): 226
O=C(NO)c1ccc(CN2c3cccnc3Sc3cccnc32)cc1 [Compound 7l, 4-[(10H-Dipyrido[2,3-b:2’,3’-e][1,4]thiazin-10-yl)methyl]-N-hydroxybenzamide] | 0.45 (kcal/mol)/non-H-Atom | 3.39 ± 0.23 µM | SF 1/6, selectivity factor for HDAC6 over HDAC1 (human recombinant HDAC6): 242
O=C(NO)c1ccc(CN2c3ccncc3Sc3ccncc32)cc1 [Compound 7m, 4-[(10H-Dipyrido[3,4-b:3’,4’-e][1,4]thiazin-10-yl)methyl]-N-hydroxybenzamide] | 0.46 (kcal/mol)/non-H-Atom | 0.79 ± 0.14 µM | 
Cc1nc2c(s1)Sc1ccccc1N2Cc1ccc(C(=O)NO)cc1 [Compound 7o, N-Hydroxy-4-[(2-methyl-4H-benzo[b]thiazolo[4,5-e][1,4]thiazin-4-yl)methyl]benzamide] | 0.42 (kcal/mol)/non-H-Atom | 5.05 ± 0.75 µM | SF 1/6, selectivity factor for HDAC6 over HDAC1 (human recombinant HDAC6): 136
O=C(NO)c1ccc(CN2c3ccccc3Sc3ccnnc32)cc1 [Compound 7p, 4-[(10H-Benzo[b]pyridazino[3,4-e][1,4]thiazin-10-yl)methyl]-N-hydroxybenzamide] | 0.45 (kcal/mol)/non-H-Atom | 1.06 ± 0.08 µM | 
O=C(NO)c1ccc(CN2c3ccccc3Sc3cc(Cl)nnc32)cc1 [Compound 7q, 4-[(3-Chloro-10H-benzo[b]pyridazino[3,4-e][1,4]thiazin-10-yl)methyl]-N-hydroxybenzamide] | 0.42 (kcal/mol)/non-H-Atom | 1.08 ± 0.04 µM | 
O=C(NO)c1ccc(CN2N=CC=C3Sc4ccccc4N=C32)cc1 [Compound 10p, 4-[(1H-Benzo[b]pyridazino[3,4-e][1,4]thiazin-1-yl)methyl]-N-hydroxybenzamide] | 0.44 (kcal/mol)/non-H-Atom | 0.75 ± 0.04 µM | 
O=C(NO)c1ccc(CN2N=C(Cl)C=C3Sc4ccccc4N=C32)cc1 [Compound 10q, 4-[(3-Chloro-1H-benzo[b]pyridazino[3,4-e][1,4]thiazin-1-yl)methyl]-N-hydroxybenzamide] | 0.38 (kcal/mol)/non-H-Atom | 4.58 ± 0.73 µM | 
CN1CCC2=C(C1)N(Cc1ccc(C(=O)NO)cc1)c1ccccc1S2 [Compound 14j, N-Hydroxy-4-[(2-methyl-1,2,3,4-tetrahydro-10H-benzo[b]pyrido[3,4-e][1,4]thiazin-10-yl)methyl]benzamide] | 0.41 (kcal/mol)/non-H-Atom |  | 
O=C(NO)c1ccc(N2c3ccccc3Sc3ccccc32)cc1 [Compound 18, N-Hydroxy-4-(10H-phenothiazin-10-yl)benzamide] | 0.33 (kcal/mol)/non-H-Atom | 5.87 ± 0.71 µM | SF 1/6, selectivity factor for HDAC6 over HDAC1 (human recombinant HDAC6): 2
O=C(NO)c1ccc(CCN2c3ccccc3Sc3ccccc32)cc1 [Compound 22, 4-[2-(10H-Phenothiazin-10-yl)ethyl]-N-hydroxybenzamide] | 0.37 (kcal/mol)/non-H-Atom | 11.7 ± 2.61 µM | SF 1/6, selectivity factor for HDAC6 over HDAC1 (human recombinant HDAC6): 86
CON(C)C(=O)c1ccc(CN2c3ccccc3Sc3ccccc32)cc1 [Compound 23, 4-[(10H-Phenothiazin-10-yl)methyl]-N-methoxy-N-methylbenzamide] |  |  | activity on HDAC6 (in words) (human recombinant HDAC6): completely inactive; activity on HDAC1 (in words) (human recombinant HDAC1): completely inactive
O=C(NO)c1ccc(CC(=O)N(CCO)c2ccccc2)cc1 [HPOB, N-hydroxy-4-(2-[(2-hydroxyethyl)(phenyl)amino]-2-oxoethyl)benzamide] |  |  | selectivity over HDAC1 (hHDAC6): ~ 50 fold
CCCCN(Cc1ccc(C(=O)NO)cc1)C(=O)Nc1ccccc1 [Nexturastat A] |  |  | selectivity over HDAC1 (hHDAC6): ~ 600 fold
CN1CCc2c(n(Cc3ccc(C(=O)NO)cc3)c3ccccc23)C1 [Regioisomer of Tubastatin] |  |  | SF 1/6, selectivity factor for HDAC6 over HDAC1 (hHDAC6; from published IC50 values): 3700
O=C(CCCCCCNC(=O)c1cnc(N(c2ccccc2)c2ccccc2)nc1)NO [Ricolinostat] |  |  | selectivity for HDAC6 relative to class I HDACs (hHDAC6; introduction, literature statement): at least 10 fold
